pEC50, pIC50: −log10 of the molar value.
Tests used:
T. brucei = tested on: T1, T. brucei; experiment: microbe, parasite or virus in culture; design: species or system T. b. brucei s427 bloodstream form; bloodstream T. b. brucei viability, resazurin fluorescence; settings: Trypanosoma brucei, 73 h
T1 construct: s427
Protocol: T.brucei cell viability assays were carried out as described previously.[6] In brief, bloodstream T. b. brucei s427 was cultured at 37 °C in modified HMI9 medium (56 μM 1-thioglycerol was substituted for 200 μM 2-mercaptoethanol) and quantified using a hemocytometer. Cell culture plates were stamped with 1 μL of an appropriate concentration of test compound in DMSO followed by the addition of 200 μL of trypanosome culture (10^4 cells ml^–1) to each well except for one column that received media only. Culture plates of T. brucei cells were incubated at 37 °C in an atmosphere of 5% CO2 for 69 h before the addition of 20 μL of resazurin (final concentration, 50 μM). After a further 4 h incubation, fluorescence was measured (excitation 528 nm; emission 590 nm) using a BioTek flx800 plate reader.

[1] = molecular target: T2, TbNMT (Trypanosoma brucei N-myristoyltransferase) (Trypanosoma brucei, UniProt Q388H8); experiment: scintillation proximity assay with [3H]myristoyl-CoA and biotinylated CAP5.[…] peptide; assay type: biochemical
T2 construct: gene Tb10.61.2550
T2 sequence (Q388H8 entry or part of it): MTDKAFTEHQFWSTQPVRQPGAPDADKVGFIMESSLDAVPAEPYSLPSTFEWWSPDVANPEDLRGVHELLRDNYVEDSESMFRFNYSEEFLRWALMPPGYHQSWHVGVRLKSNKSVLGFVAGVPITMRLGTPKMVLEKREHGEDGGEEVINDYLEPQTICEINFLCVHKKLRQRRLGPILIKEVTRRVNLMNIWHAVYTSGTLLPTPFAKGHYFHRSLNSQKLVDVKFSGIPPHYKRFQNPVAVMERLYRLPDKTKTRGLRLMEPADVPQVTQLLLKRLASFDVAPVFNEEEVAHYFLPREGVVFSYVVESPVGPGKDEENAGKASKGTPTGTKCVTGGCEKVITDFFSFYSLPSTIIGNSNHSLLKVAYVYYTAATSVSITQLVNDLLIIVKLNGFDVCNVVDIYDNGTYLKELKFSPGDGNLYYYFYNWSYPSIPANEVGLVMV

SMILES | pEC50 (T. brucei) | pIC50 [1]
CC(C)Cc1ccc2ncccc2c1NS(=O)(=O)c1ccc(CCCC2CCNCC2)cc1 [S1, N-(6-isobutylquinolin-5-yl)-4-(3-(piperidin-4-yl)propyl)benzenesulfonamide] | 7.60 | –
CC(C)Cc1ccc2ncccc2c1NS(=O)(=O)c1ccc(CCCN2CCN3CCC[C@H]3C2)cc1 [S2, (S)-4-(3-(hexahydropyrrolo[1,2-a]pyrazin-2(1H)-yl)propyl)-N-(6-isobutylquinolin-5-yl)benzenesulfonamide] | 6.82 | –
CC(C)Cc1ccc2ncccc2c1NS(=O)(=O)c1ccc(CCCOC[C@@H]2CCCCN2)cc1 [S3, (S)-N-(6-isobutylquinolin-5-yl)-4-(3-(piperidin-2-ylmethoxy)propyl)benzenesulfonamide] | 6.07 | –
CC(C)Cc1ccc2ncccc2c1NS(=O)(=O)c1ccc(CCCOC[C@@H]2CCCN(C)C2)cc1 [S4, (R)-N-(6-isobutylquinolin-5-yl)-4-(3-((1-methylpiperidin-3-yl)methoxy)propyl)benzenesulfonamide] | 8.00 | –
CC(C)Cc1ccc2ncccc2c1NS(=O)(=O)c1ccc(CCCOC[C@H]2COCCN2)cc1 [S5, (S)-N-(6-isobutylquinolin-5-yl)-4-(3-(morpholin-3-ylmethoxy)propyl)benzenesulfonamide] | 6.15 | –
CC(C)Cc1ccc2ncccc2c1NS(=O)(=O)c1ccc(CCCOC[C@H]2COCCN2C)cc1 [S6, (S)-N-(6-isobutylquinolin-5-yl)-4-(3-((4-methylmorpholin-3-yl)methoxy)propyl)benzenesulfonamide] | 6.60 | –
CC(C)Cc1ccc2ncccc2c1NS(=O)(=O)c1ccc(CCCC2CCN(C)CC2)cc1 [compound 31, N-(6-isobutylquinolin-5-yl)-4-(3-(1-methylpiperidin-4-yl)propyl)benzenesulfonamide] | 8.05 | –
CC(C)Cc1ccc2ncccc2c1NS(=O)(=O)c1ccc(CCCCC2CCN(C)CC2)cc1 [compound 32, N-(6-Isobutylquinolin-5-yl)-4-(4-(1-methylpiperidin-4-yl)butyl)benzenesulfonamide] | 7.72 | > 8.30
CC(C)Cc1ccc2ncccc2c1NS(=O)(=O)c1ccc(CCCCC2CCNCC2)cc1 [compound 33, N-(6-isobutylquinolin-5-yl)-4-(4-(piperidin-4-yl)butyl)benzenesulfonamide] | 7.68 | –
CC(C)Cc1ccc2ncccc2c1NS(=O)(=O)c1ccc(CCCN2CCN3CCC[C@@H]3C2)cc1 [compound 34, (R)-4-(3-(hexahydropyrrolo[1,2-a]pyrazin-2(1H)-yl)propyl)-N-(6-isobutylquinolin-5-yl)benzenesulfonamide] | 7.40 | –
CC(C)Cc1ccc2ncccc2c1NS(=O)(=O)c1ccc(CCCCN2CCN3CCC[C@@H]3C2)cc1 [compound 35, (R)-4-(4-(hexahydropyrrolo[1,2-a]pyrazin-2(1H)-yl)butyl)-N-(6-isobutylquinolin-5-yl)benzenesulfonamide] | 6.60 | –
CC(C)Cc1ccc2ncccc2c1NS(=O)(=O)c1ccc(CCCN2CCCN(C)CC2)cc1 [compound 36, N-(6-isobutylquinolin-5-yl)-4-(3-(4-methyl-1,4-diazepan-1-yl)propyl)benzenesulfonamide] | 7.74 | –
CC(C)Cc1ccc2ncccc2c1NS(=O)(=O)c1ccc(CCCCN2CCCN(C)CC2)cc1 [compound 37, N-(6-isobutylquinolin-5-yl)-4-(4-(4-methyl-1,4-diazepan-1-yl)butyl)benzenesulfonamide] | 7.23 | –
CC(C)Cc1ccc2ncccc2c1NS(=O)(=O)c1ccc(CCCN2CCN(C)CC2)cc1 [compound 38, N-(6-isobutylquinolin-5-yl)-4-(3-(4-methylpiperazin-1-yl)propyl)benzenesulfonamide] | 7.08 | –
CC(C)Cc1ccc2ncccc2c1NS(=O)(=O)c1ccc(CCCCN2CCNCC2)cc1 [compound 39, N-(6-isobutylquinolin-5-yl)-4-(4-(piperazin-1-yl)butyl)benzenesulfonamide] | 6.74 | –
CC(C)Cc1ccc2ncccc2c1NS(=O)(=O)c1ccc(CCCCN2C[C@@H](C)N[C@@H](C)C2)cc1 [compound 40, 4-(4-((3S,5R)-3,5-dimethylpiperazin-1-yl)butyl)-N-(6-isobutylquinolin-5-yl)benzenesulfonamide] | 6.46 | –
CC(C)Cc1ccc2ncccc2c1NS(=O)(=O)c1ccc(CCCO[C@@H]2C[C@H]3CC[C@@H](C2)N3C)cc1 [compound 41, 41] | 7.04 | –
CC(C)Cc1ccc2ncccc2c1NS(=O)(=O)c1ccc(CCCO[C@H]2C[C@H]3CC[C@@H](C2)N3C)cc1 [compound 42, 42] | 8.05 | –
CC(C)Cc1ccc2ncccc2c1NS(=O)(=O)c1ccc(CCCO[C@@H]2CCCN(C)C2)cc1 [compound 43, (R)-N-(6-isobutylquinolin-5-yl)-4-(3-((1-methylpiperidin-3-yl)oxy)propyl)benzenesulfonamide] | 7.41 | –
CC(C)Cc1ccc2ncccc2c1NS(=O)(=O)c1ccc(CCCOC[C@@H]2CNCCO2)cc1 [compound 44, (S)-N-(6-isobutylquinolin-5-yl)-4-(3-(morpholin-2-ylmethoxy)propyl)benzenesulfonamide] | 7.41 | –
CC(C)Cc1ccc2nn(C)cc2c1NS(=O)(=O)c1ccc(CCCCC2CCN(C)CC2)cc1 [compound 54, N-(5-Isobutyl-2-methyl-2H-indazol-4-yl)-4-(4-(1-methylpiperidin-4-yl)butyl)benzenesulfonamide] | – | > 8.30
CC(C)Cc1ccc2nn(C)cc2c1NS(=O)(=O)c1ccc(CCCO[C@@H]2C[C@H]3CC[C@@H](C2)N3C)cc1 [compound 60] | – | 8.30
